Assay results taken from patent publication US11753407B2, “Compounds for treating spinal muscular atrophy” (PTC Therapeutics, Inc., priority 2012, dated 2023).

What was measured:
[1] = system: Smn protein in SMA patient fibroblast cells (GM03813); test: Smn protein assay in cultured cells (SMN HTRF); assay type: cell-based, human; details: SMA patient fibroblast cells, 48 hours; for EC1.5x for Smn protein expression: 7-point concentration curve, SMN HTRF, concentration producing 1.5 times Smn protein vs DMSO vehicle control; for maximum fold (Fold) increase of Smn protein: 7-point concentration data, fold relative to vehicle control
Outline: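 Cells were cultured 72 h, seeded at 5,000/well and dosed with seven concentrations (3.16-fold apart) for 48 h. HTRF on lysates, read at 665 and 620 nm, gave blank-corrected ΔF values relative to DMSO. Potency is reported as EC1.5×, efficacy as maximal fold Smn increase.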

[2] = system: SMN2 minigene mRNA (SMN2-A minigene) in HEK293H cells; test: SMN2 minigene mRNA splicing RT-qPCR assay in cultured cells; assay type: cell-based, human; details: Homo sapiens, HEK293-H; concentration increasing full length SMN2 mRNA 1.5-fold relative to vehicle-treated cells; HEK293H cells with SMN2-A minigene, 24 hours, 7-point concentration data; read-out: EC1.5x for production of full length SMN2 mRNA
Outline: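 EC1.5× values derive from a 24 h treatment of SMN2-A minigene HEK293H cells and GAPDH-normalized RT-qPCR of exon 7-included minigene mRNA relative to vehicle-treated cells.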

| melting point [°C] | SMILES | EC1.5x for Smn protein expression [1] | maximum fold (Fold) increase of Smn protein [1] | EC (1.5-fold increase) [2] [µM] |
| --- | --- | --- | --- | --- |
| 228 to 236 | CCNC1CCN(c2cc(C)c3nc(-c4cc5c(C)nc(C)cn5n4)cc(=O)n3c2)CC1 [Compound 596, 2-(4,6-dimethylpyrazolo[1,5-a]pyrazin-2-yl)-7-[4-(ethylamino)piperidin-1-yl]-9-methyl-4H-pyrido[1,2-a]pyrimidin-4-one] | **** (an EC1.5x≤0.3 μM is indicated by four stars (****)) | **** (a fold increase between >1.5 and ≤1.65 is indicated by four stars (****)) | < 0.1 |
| 218 to 227 | Cc1cn2nc(-c3cc(=O)n4cc(N5CCC(N(CCO)CCO)CC5)cc(C)c4n3)cc2c(C)n1 [Compound 597, 7-{4-[bis(2-hydroxyethyl)amino]piperidin-1-yl}-2-(4,6-dimethylpyrazolo[1,5-a]pyrazin-2-yl)-9-methyl-4H-pyrido[1,2-a]pyrimidin-4-one] | *** (an EC1.5× between >0.3 μM and ≤1 μM is indicated by three stars (***)) | **** (a fold increase between >1.5 and ≤1.65 is indicated by four stars (****)) | 0.1 to 0.3 |
| 205 to 207 | Cc1nc2ccc(-c3cc(=O)n4nc(C5CCN(CCO)CC5)ccc4n3)cc2o1 [Compound 598, 7-[1-(2-hydroxyethyl)piperidin-4-yl]-2-(2-methyl-1,3-benzoxazol-6-yl)-4H-pyrimido[1,2-b]pyridazin-4-one] | *** (an EC1.5× between >0.3 μM and ≤1 μM is indicated by three stars (***)) | ***** (a fold increase >1.65 is indicated by five stars (*****)) | 0.1 to 0.3 |
| 266 to 268 | Cc1cn2cc(-c3cc(=O)n4cc(C5CCN(CCO)CC5)ncc4n3)cc(Cl)c2n1 [Compound 599, 2-(8-chloro-2-methylimidazo[1,2-a]pyridin-6-yl)-7-[1-(2-hydroxyethyl)piperidin-4-yl]-4H-pyrazino[1,2-a]pyrimidin-4-one] | **** (an EC1.5x≤0.3 μM is indicated by four stars (****)) | ***** (a fold increase >1.65 is indicated by five stars (*****)) | < 0.1 |
| 150 to 152 | Cc1cn2nc(-c3cc(=O)n4cc(C5CCN(C6COC6)CC5)ccc4n3)cc2c(C)n1 [Compound 600, 2-(4,6-dimethylpyrazolo[1,5-a]pyrazin-2-yl)-7-[1-(oxetan-3-yl)piperidin-4-yl]-4H-pyrido[1,2-a]pyrimidin-4-one] | ** (an EC1.5× between >1 μM and ≤3 μM is indicated by two stars (**)) | **** (a fold increase between >1.5 and ≤1.65 is indicated by four stars (****)) | 0.1 to 0.3 |
| 202 to 204 | CCN1CCN(c2ccc3nc(-c4cc5cc(C)nc(C)c5o4)cc(=O)n3c2)CC1 [Compound 601, 2-(5,7-dimethylfuro[2,3-c]pyridin-2-yl)-7-(4-ethylpiperazin-1-yl)-4H-pyrido[1,2-a]pyrimidin-4-one] | *** (an EC1.5× between >0.3 μM and ≤1 μM is indicated by three stars (***)) | **** (a fold increase between >1.5 and ≤1.65 is indicated by four stars (****)) | < 0.1 |
| 210 to 212 | Cc1cn2nc(-c3cc(=O)n4cc(N5CCC6C(CCN6C)C5)ccc4n3)cc2c(C)n1 (centres unmarked) [Compound 602, 2-(4,6-dimethylpyrazolo[1,5-a]pyrazin-2-yl)-7-(1-methyloctahydro-5H-pyrrolo[3,2-c]pyridin-5-yl)-4H-pyrido[1,2-a]pyrimidin-4-one] | **** (an EC1.5x≤0.3 μM is indicated by four stars (****)) | **** (a fold increase between >1.5 and ≤1.65 is indicated by four stars (****)) | < 0.1 |
| 184 to 186 | CCN1CCC(c2ccc3nc(-c4ccc5c(cnn5C)c4)cc(=O)n3c2)CC1 [Compound 604, 7-(1-ethylpiperidin-4-yl)-2-(1-methyl-1H-indazol-5-yl)-4H-pyrido[1,2-a]pyrimidin-4-one] | **** (an EC1.5x≤0.3 μM is indicated by four stars (****)) | ***** (a fold increase >1.65 is indicated by five stars (*****)) | 0.3 to 1 |
| 204 to 206 | Cn1ncc2cc(-c3cc(=O)n4cc(C5CCN(CCO)CC5)ccc4n3)ccc21 [Compound 605, 7-[1-(2-hydroxyethyl)piperidin-4-yl]-2-(1-methyl-1H-indazol-5-yl)-4H-pyrido[1,2-a]pyrimidin-4-one] | *** (an EC1.5× between >0.3 μM and ≤1 μM is indicated by three stars (***)) | ***** (a fold increase >1.65 is indicated by five stars (*****)) | 0.3 to 1 |
| 194 to 196 | Cn1cc2cc(-c3cc(=O)n4cc(C5CCNCC5)ccc4n3)ccc2n1 [Compound 606, 2-(2-methyl-2H-indazol-5-yl)-7-(piperidin-4-yl)-4H-pyrido[1,2-a]pyrimidin-4-one] | ** (an EC1.5× between >1 μM and ≤3 μM is indicated by two stars (**)) | **** (a fold increase between >1.5 and ≤1.65 is indicated by four stars (****)) | < 0.1 |
| 282 to 284 | Cc1cn2cc(-c3cc(=O)n4cc(C5CCNCC5)ccc4n3)cc(C)c2n1 [Compound 607, 2-(2,8-dimethylimidazo[1,2-a]pyridin-6-yl)-7-(piperidin-4-yl)-4H-pyrido[1,2-a]pyrimidin-4-one] | **** (an EC1.5x≤0.3 μM is indicated by four stars (****)) | ***** (a fold increase >1.65 is indicated by five stars (*****)) | < 0.1 |
| 221 to 232 | Cc1cn2nc(-c3cc(=O)n4cc(N5CCC(NCCO)CC5)cc(C)c4n3)cc2c(C)n1 [Compound 609, 2-(4,6-dimethylpyrazolo[1,5-a]pyrazin-2-yl)-7-{4-[(2-hydroxyethyl)amino]piperidin-1-yl}-9-methyl-4H-pyrido[1,2-a]pyrimidin-4-one] | **** (an EC1.5x≤0.3 μM is indicated by four stars (****)) | ***** (a fold increase >1.65 is indicated by five stars (*****)) | < 0.1 |
| 218 to 227 | CNC1CCN(c2cc(C)c3nc(-c4cc5c(C)nc(C)cn5n4)cc(=O)n3c2)CC1 [Compound 610, 2-(4,6-dimethylpyrazolo[1,5-a]pyrazin-2-yl)-9-methyl-7-[4-(methylamino)piperidin-1-yl]-4H-pyrido[1,2-a]pyrimidin-4-one] | **** (an EC1.5x≤0.3 μM is indicated by four stars (****)) | ***** (a fold increase >1.65 is indicated by five stars (*****)) | < 0.1 |
| 215 to 225 | Cc1cn2nc(-c3cc(=O)n4cc(N5CCC(NC(C)C)CC5)cc(C)c4n3)cc2c(C)n1 [Compound 611, 2-(4,6-dimethylpyrazolo[1,5-a]pyrazin-2-yl)-9-methyl-7-[4-(propan-2-ylamino)piperidin-1-yl]-4H-pyrido[1,2-a]pyrimidin-4-one] | – | *** (a fold increase between >1.35 and ≤1.5 is indicated by three stars (***)) | 0.3 to 1 |
| 202 to 204 | CCN1CCC(c2ccc3nc(-c4ccc5nn(C)cc5c4)cc(=O)n3c2)CC1 [Compound 612, 7-(1-ethylpiperidin-4-yl)-2-(2-methyl-2H-indazol-5-yl)-4H-pyrido[1,2-a]pyrimidin-4-one] | **** (an EC1.5x≤0.3 μM is indicated by four stars (****)) | ***** (a fold increase >1.65 is indicated by five stars (*****)) | < 0.1 |
| 170 to 172 | Cn1cc2cc(-c3cc(=O)n4cc(C5CCN(CCO)CC5)ccc4n3)ccc2n1 [Compound 613, 7-[1-(2-hydroxyethyl)piperidin-4-yl]-2-(2-methyl-2H-indazol-5-yl)-4H-pyrido[1,2-a]pyrimidin-4-one] | **** (an EC1.5x≤0.3 μM is indicated by four stars (****)) | ***** (a fold increase >1.65 is indicated by five stars (*****)) | < 0.1 |
| 200 to 202 | Cc1cn2cc(-c3cc(=O)n4cc(C5CCN(C)CC5)ccc4n3)cc(C)c2n1 [Compound 614, 2-(2,8-dimethylimidazo[1,2-a]pyridin-6-yl)-7-(1-methylpiperidin-4-yl)-4H-pyrido[1,2-a]pyrimidin-4-one] | **** (an EC1.5x≤0.3 μM is indicated by four stars (****)) | ***** (a fold increase >1.65 is indicated by five stars (*****)) | < 0.1 |
| 202 to 204 | CCN1CCC(c2ccc3nc(-c4cc(C)c5nc(C)cn5c4)cc(=O)n3c2)CC1 [Compound 615, 2-(2,8-dimethylimidazo[1,2-a]pyridin-6-yl)-7-(1-ethylpiperidin-4-yl)-4H-pyrido[1,2-a]pyrimidin-4-one] | **** (an EC1.5x≤0.3 μM is indicated by four stars (****)) | **** (a fold increase between >1.5 and ≤1.65 is indicated by four stars (****)) | < 0.1 |
